Measurements reported in patent US20150322051A1, “Macrocyclic picolinamides as fungicides” (Dow AgroSciences LLC, priority 2014, published 2015).

system: Puccinia triticina; synonym: Puccinia recondita f. sp. tritici (PUCCRT); assay: Wheat brown rust (PUCCRT) whole-plant fungicidal test; type: in vivo; details: topical, 24 h, high volume application, 100 ppm, 1 Day Protectant, read-out: High Volume activity at 100 ppm PUCCRT 1DP (% disease control rating)

SMILES	pest or weed control at 100 ppm [%]
COc1ccnc(C(=O)N[C@H]2CCC[C@H](CCCc3ccccc3)[C@@H](Cc3ccc(OC(F)(F)F)cc3)[C@H](C)OC2=O)c1O [Compound 93]	< 70
COc1ccnc(C(=O)N[C@H]2CCC[C@H](Cc3ccc(C(F)(F)F)cc3)[C@@H](Cc3ccc(OC(F)(F)F)cc3)[C@H](C)OC2=O)c1O [Compound 96]	< 70
COc1ccnc(C(=O)N[C@H]2CCC[C@H](Cc3ccccc3)[C@@H](C3CCCC3)[C@H](C)OC2=O)c1O [Compound 75]	> 70
COc1ccnc(C(=O)N[C@H]2CCC[C@H](Cc3ccccc3)[C@@H](Cc3ccccc3)[C@H](C)OC2=O)c1O [Compound 74]	> 70

same assay, conditions: topical, 24 h, low volume (track spray) application, 121.5 g/H, 1 Day Protectant, read-out: Low Volume activity at 121.5 g/H PUCCRT 1DP (% disease control rating)

SMILES	pest or weed control at 121.5 g/ha [%]
COc1ccnc(C(=O)N[C@H]2CCC[C@H](Cc3ccc(Cl)cc3)[C@@H](Cc3ccccc3)[C@H](C)OC2=O)c1OCOC(C)=O [Compound 19]	> 70
COc1ccnc(C(=O)N[C@H]2CCC[C@H](Cc3ccccc3)[C@@H](CC(C)C)[C@H](C)OC2=O)c1OCOC(C)=O [Compound 14]	> 70
CCOCC(=O)OCOc1c(OC)ccnc1C(=O)N[C@H]1CCC[C@H](Cc2ccc(Cl)cc2)[C@@H](C2CCCC2)[C@H](C)OC1=O [Compound 31]	> 70
CCC[C@H]1CCC[C@H](NC(=O)c2nccc(OC)c2OC(C)=O)C(=O)O[C@@H](C)[C@@H]1Cc1ccccc1 [Compound 38]	> 70
COc1ccnc(C(=O)N[C@H]2CCC[C@H](Cc3ccccc3)[C@@H](C3CCCC3)[C@H](C)OC2=O)c1OC(C)=O [Compound 9]	> 70
COc1ccnc(C(=O)N[C@H]2CCC[C@H](Cc3ccc(C(F)(F)F)cc3)[C@@H](Cc3ccc(OC(F)(F)F)cc3)[C@H](C)OC2=O)c1OCOC(C)=O [Compound 65]	< 70

same assay, conditions: topical, 72 h, high volume application, 100 ppm, 3 Day Curative, read-out: High Volume activity at 100 ppm PUCCRT 3DC (% disease control rating)

SMILES	pest or weed control at 100 ppm [%]
COc1ccnc(C(=O)N[C@H]2CCC[C@H](CCCc3ccccc3)[C@@H](Cc3ccc(OC(F)(F)F)cc3)[C@H](C)OC2=O)c1O [Compound 93]	< 70
COc1ccnc(C(=O)N[C@H]2CCC[C@H](Cc3ccc(C(F)(F)F)cc3)[C@@H](Cc3ccc(OC(F)(F)F)cc3)[C@H](C)OC2=O)c1O [Compound 96]	< 70
COc1ccnc(C(=O)N[C@H]2CCC[C@H](Cc3ccccc3)[C@@H](C3CCCC3)[C@H](C)OC2=O)c1O [Compound 75]	< 70
COc1ccnc(C(=O)N[C@H]2CCC[C@H](Cc3ccccc3)[C@@H](Cc3ccccc3)[C@H](C)OC2=O)c1O [Compound 74]	> 70

same assay, conditions: topical, 72 h, low volume (track spray) application, 121.5 g/H, 3 Day Curative, read-out: Low Volume activity at 121.5 g/H PUCCRT 3DC (% disease control rating)

SMILES	pest or weed control at 121.5 g/ha [%]
COc1ccnc(C(=O)N[C@H]2CCC[C@H](Cc3ccc(Cl)cc3)[C@@H](Cc3ccccc3)[C@H](C)OC2=O)c1OCOC(C)=O [Compound 19]	< 70
COc1ccnc(C(=O)N[C@H]2CCC[C@H](Cc3ccccc3)[C@@H](CC(C)C)[C@H](C)OC2=O)c1OCOC(C)=O [Compound 14]	< 70
CCOCC(=O)OCOc1c(OC)ccnc1C(=O)N[C@H]1CCC[C@H](Cc2ccc(Cl)cc2)[C@@H](C2CCCC2)[C@H](C)OC1=O [Compound 31]	< 70
CCC[C@H]1CCC[C@H](NC(=O)c2nccc(OC)c2OC(C)=O)C(=O)O[C@@H](C)[C@@H]1Cc1ccccc1 [Compound 38]	> 70
COc1ccnc(C(=O)N[C@H]2CCC[C@H](Cc3ccccc3)[C@@H](C3CCCC3)[C@H](C)OC2=O)c1OC(C)=O [Compound 9]	< 70
COc1ccnc(C(=O)N[C@H]2CCC[C@H](Cc3ccc(C(F)(F)F)cc3)[C@@H](Cc3ccc(OC(F)(F)F)cc3)[C@H](C)OC2=O)c1OCOC(C)=O [Compound 65]	< 70

system: Mycosphaerella graminicola; anamorph: Septoria tritici (SEPTTR); assay: Leaf blotch of wheat (SEPTTR) whole-plant fungicidal test; type: in vivo; details: Zymoseptoria tritici, topical, 24 h, high volume application, 100 ppm, 1 Day Protectant, read-out: High Volume activity at 100 ppm SEPTTR 1DP (% disease control rating)

SMILES	pest or weed control at 100 ppm [%]
COc1ccnc(C(=O)N[C@H]2CCC[C@H](CCCc3ccccc3)[C@@H](Cc3ccc(OC(F)(F)F)cc3)[C@H](C)OC2=O)c1O [Compound 93]	< 70
COc1ccnc(C(=O)N[C@H]2CCC[C@H](Cc3ccc(C(F)(F)F)cc3)[C@@H](Cc3ccc(OC(F)(F)F)cc3)[C@H](C)OC2=O)c1O [Compound 96]	< 70
COc1ccnc(C(=O)N[C@H]2CCC[C@H](Cc3ccccc3)[C@@H](C3CCCC3)[C@H](C)OC2=O)c1O [Compound 75]	> 70
COc1ccnc(C(=O)N[C@H]2CCC[C@H](Cc3ccccc3)[C@@H](Cc3ccccc3)[C@H](C)OC2=O)c1O [Compound 74]	> 70

same assay, conditions: Zymoseptoria tritici, topical, 24 h, low volume (track spray) application, 121.5 g/H, 1 Day Protectant, read-out: Low Volume activity at 121.5 g/H SEPTTR 1DP (% disease control rating)

SMILES	pest or weed control at 121.5 g/ha [%]
COc1ccnc(C(=O)N[C@H]2CCC[C@H](Cc3ccc(Cl)cc3)[C@@H](Cc3ccccc3)[C@H](C)OC2=O)c1OCOC(C)=O [Compound 19]	> 70
COc1ccnc(C(=O)N[C@H]2CCC[C@H](Cc3ccccc3)[C@@H](CC(C)C)[C@H](C)OC2=O)c1OCOC(C)=O [Compound 14]	> 70
CCOCC(=O)OCOc1c(OC)ccnc1C(=O)N[C@H]1CCC[C@H](Cc2ccc(Cl)cc2)[C@@H](C2CCCC2)[C@H](C)OC1=O [Compound 31]	> 70
CCC[C@H]1CCC[C@H](NC(=O)c2nccc(OC)c2OC(C)=O)C(=O)O[C@@H](C)[C@@H]1Cc1ccccc1 [Compound 38]	> 70
COc1ccnc(C(=O)N[C@H]2CCC[C@H](Cc3ccccc3)[C@@H](C3CCCC3)[C@H](C)OC2=O)c1OC(C)=O [Compound 9]	> 70
COc1ccnc(C(=O)N[C@H]2CCC[C@H](Cc3ccc(C(F)(F)F)cc3)[C@@H](Cc3ccc(OC(F)(F)F)cc3)[C@H](C)OC2=O)c1OCOC(C)=O [Compound 65]	< 70

same assay, conditions: Zymoseptoria tritici, topical, 72 h, high volume application, 100 ppm, 3 Day Curative, read-out: High Volume activity at 100 ppm SEPTTR 3DC (% disease control rating)

SMILES	pest or weed control at 100 ppm [%]
COc1ccnc(C(=O)N[C@H]2CCC[C@H](CCCc3ccccc3)[C@@H](Cc3ccc(OC(F)(F)F)cc3)[C@H](C)OC2=O)c1O [Compound 93]	< 70
COc1ccnc(C(=O)N[C@H]2CCC[C@H](Cc3ccc(C(F)(F)F)cc3)[C@@H](Cc3ccc(OC(F)(F)F)cc3)[C@H](C)OC2=O)c1O [Compound 96]	< 70
COc1ccnc(C(=O)N[C@H]2CCC[C@H](Cc3ccccc3)[C@@H](C3CCCC3)[C@H](C)OC2=O)c1O [Compound 75]	> 70
COc1ccnc(C(=O)N[C@H]2CCC[C@H](Cc3ccccc3)[C@@H](Cc3ccccc3)[C@H](C)OC2=O)c1O [Compound 74]	> 70

same assay, conditions: Zymoseptoria tritici, topical, 72 h, low volume (track spray) application, 121.5 g/H, 3 Day Curative, read-out: Low Volume activity at 121.5 g/H SEPTTR 3DC (% disease control rating)

SMILES	pest or weed control at 121.5 g/ha [%]
COc1ccnc(C(=O)N[C@H]2CCC[C@H](Cc3ccc(Cl)cc3)[C@@H](Cc3ccccc3)[C@H](C)OC2=O)c1OCOC(C)=O [Compound 19]	> 70
COc1ccnc(C(=O)N[C@H]2CCC[C@H](Cc3ccccc3)[C@@H](CC(C)C)[C@H](C)OC2=O)c1OCOC(C)=O [Compound 14]	> 70
CCOCC(=O)OCOc1c(OC)ccnc1C(=O)N[C@H]1CCC[C@H](Cc2ccc(Cl)cc2)[C@@H](C2CCCC2)[C@H](C)OC1=O [Compound 31]	> 70
CCC[C@H]1CCC[C@H](NC(=O)c2nccc(OC)c2OC(C)=O)C(=O)O[C@@H](C)[C@@H]1Cc1ccccc1 [Compound 38]	> 70
COc1ccnc(C(=O)N[C@H]2CCC[C@H](Cc3ccccc3)[C@@H](C3CCCC3)[C@H](C)OC2=O)c1OC(C)=O [Compound 9]	> 70
COc1ccnc(C(=O)N[C@H]2CCC[C@H](Cc3ccc(C(F)(F)F)cc3)[C@@H](Cc3ccc(OC(F)(F)F)cc3)[C@H](C)OC2=O)c1OCOC(C)=O [Compound 65]	< 70

system: not given; assay: not given; details: not given

melting point [°C]	SMILES
196 to 198	C[C@@H]1OC(=O)[C@@H](N)CCC[C@H](Cc2ccccc2)[C@H]1Cc1ccc(OC(F)(F)F)cc1.Cl
73 to 76	COc1ccnc(C(=O)N[C@H]2CCC[C@H](Cc3ccccc3)[C@@H](CC(C)C)[C@H](C)OC2=O)c1O [Compound 77]
98 to 100	COc1ccnc(C(=O)N[C@H]2CCC[C@H](Cc3ccc(Cl)cc3)[C@@H](Cc3ccccc3)[C@H](C)OC2=O)c1OCOC(C)=O [Compound 19]
215 to 217	C[C@@H]1OC(=O)[C@@H](N)CCC[C@H](Cc2ccc(C(F)(F)F)cc2)[C@H]1Cc1ccc(OC(F)(F)F)cc1.Cl
227 to 232	C[C@@H]1OC(=O)[C@@H](N)CCC[C@H](CCCc2ccccc2)[C@H]1Cc1ccc(OC(F)(F)F)cc1.Cl
49 to 53	COc1ccnc(C(=O)N[C@H]2CCC[C@H](CCCc3ccccc3)[C@@H](Cc3ccc(OC(F)(F)F)cc3)[C@H](C)OC2=O)c1O [Compound 93]
60 to 64	COc1ccnc(C(=O)N[C@H]2CCC[C@H](Cc3ccccc3)[C@@H](CC(C)C)[C@H](C)OC2=O)c1OCOC(C)=O [Compound 14]
65 to 67	C[C@@H]1OC(=O)[C@@H](NC(=O)OC(C)(C)C)CCC[C@H](Cc2ccc(C(F)(F)F)cc2)[C@H]1Cc1ccc(OC(F)(F)F)cc1 [Compound 152]
221 to 224	CC(C)C[C@@H]1[C@@H](Cc2ccccc2)CCC[C@H](N)C(=O)O[C@H]1C.Cl
